In PMC6151984, “Novel Sulfamide-Containing Compounds as Selective Carbonic Anhydrase I Inhibitors” (Molecules : A Journal of Synthetic Chemistry and Natural …, 2017):

Tests used:
Experiment in all cases: stopped-flow CO2 hydration assay
Type in all cases: biochemical
hCA IV = target: T1, hCA IV (Homo sapiens, UniProt P22748)
T1 construct: gene CA4; recombinant, obtained in-house
From the text: stopped-flow CO2 hydration assay on hCA IV

hCA I = target: T2, hCA I (Homo sapiens, UniProt P00915)
T2 construct: gene CA1; recombinant, obtained in-house; cytosolic
T2 sequence (P00915 2-261): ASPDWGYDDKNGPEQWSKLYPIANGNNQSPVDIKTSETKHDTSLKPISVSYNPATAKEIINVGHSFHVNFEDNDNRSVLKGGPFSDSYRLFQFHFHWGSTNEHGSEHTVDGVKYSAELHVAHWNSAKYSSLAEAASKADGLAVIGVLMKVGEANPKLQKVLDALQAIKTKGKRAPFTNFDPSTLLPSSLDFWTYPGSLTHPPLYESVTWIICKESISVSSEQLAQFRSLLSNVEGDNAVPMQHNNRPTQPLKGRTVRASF
From the text: stopped-flow CO2 hydration assay on hCA I

hCA II = target: T3, hCA II (Homo sapiens, UniProt P00918)
T3 construct: gene CA2; recombinant, obtained in-house; cytosolic
From the text: stopped-flow CO2 hydration assay on hCA II

T1 sequence (P22748 19-284): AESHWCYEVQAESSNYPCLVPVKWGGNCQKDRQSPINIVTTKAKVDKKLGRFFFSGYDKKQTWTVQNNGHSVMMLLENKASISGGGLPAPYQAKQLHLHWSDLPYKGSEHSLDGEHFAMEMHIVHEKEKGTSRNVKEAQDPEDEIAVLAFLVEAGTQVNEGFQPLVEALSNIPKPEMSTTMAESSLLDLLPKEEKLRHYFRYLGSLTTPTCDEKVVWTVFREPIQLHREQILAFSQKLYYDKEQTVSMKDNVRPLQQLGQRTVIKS

Row | SMILES | Ki (hCA IV) [nM] | Ki (hCA I) [nM] | Ki (hCA II) [nM]
1 | NS(=O)(=O)Nc1ccccc1S(=O)(=O)N1CCCC(C(=O)N2CCN(C(c3ccccc3)c3ccccc3)CC2)C1 (stereo not drawn) [6g, (1-((2-Sulfamoylaminophenyl)sulfonyl)piperidin-3-yl)(4-benzhydrylpiperazin-1-yl)methanone] | 314 | 605 | 89.8
2 | NS(=O)(=O)Nc1ccccc1S(=O)(=O)NCCC(=O)N1CCN(C(c2ccc(F)cc2)c2ccc(F)cc2)CC1 [6d, N-(3-(4-(bis(4-Fluorophenyl)methyl)piperazin-1-yl)-3-oxopropyl)-2(sulfamoylamino)benzenesulfonamide] | 117 | 660 | 189
3 | NS(=O)(=O)Nc1ccc(S(=O)(=O)N2CCCC(C(=O)N3CCN(C(c4ccccc4)c4ccccc4)CC3)C2)cc1 (stereo not drawn) [6i, (1-((4-Sulfamoylaminophenyl)sulfonyl)piperidin-3-yl)(4-benzhydrylpiperazin-1-yl)methanone] | 364 | 153 | 455
4 | NS(=O)(=O)Nc1cccc(S(=O)(=O)N2CCCC(C(=O)N3CCN(C(c4ccccc4)c4ccccc4)CC3)C2)c1 (stereo not drawn) [6h, 4(1-((3-Sulfamoylaminophenyl)sulfonyl)piperidin-3-yl)(4-benzhydrylpiperazin-1-yl)methanone] | 1620 | 71.4 | 911
5 | NS(=O)(=O)Nc1ccccc1S(=O)(=O)N1CCCC(C(=O)N2CCN(C(c3ccc(F)cc3)c3ccc(F)cc3)CC2)C1 (stereo not drawn) [6j, (1-((2-Sulfamoylaminophenyl)sulfonyl)piperidin-3-yl)(4-(bis(4-fluorophenyl)methyl)piperazin-1-yl)methanone] | 1500 | 2750 | 6460
6 | NS(=O)(=O)Nc1cccc(S(=O)(=O)NCCC(=O)N2CCN(C(c3ccccc3)c3ccccc3)CC2)c1 [6b, N-(3-(4-Benzhydrylpiperazin-1-yl)-3-oxopropyl)-3-(sulfamoylamino)benzenesulfonamide] | 2360 | 83.1 | 419
7 | NS(=O)(=O)Nc1ccccc1S(=O)(=O)NCCC(=O)N1CCN(C(c2ccccc2)c2ccccc2)CC1 [6a, N-(3-(4-Benzhydrylpiperazin-1-yl)-3-oxopropyl)-2-(sulfamoylamino)benzenesulfonamide] | 151 | 286 | 473
8 | NS(=O)(=O)Nc1ccc(S(=O)(=O)NCCC(=O)N2CCN(C(c3ccccc3)c3ccccc3)CC2)cc1 [6c, N-(3-(4-Benzhydrylpiperazin-1-yl)-3-oxopropyl)-4-(sulfamoylamino)benzenesulfonamide] | 124 | 75.4 | 439
9 | NS(=O)(=O)Nc1cccc(S(=O)(=O)NCCC(=O)N2CCN(C(c3ccc(F)cc3)c3ccc(F)cc3)CC2)c1 [6e, N-(3-(4-(bis(4-Fluorophenyl)methyl)piperazin-1-yl)-3-oxopropyl)-3(sulfamoylamino)benzenesulfonamide] | 423 | 94 | 165
10 | NS(=O)(=O)Nc1ccc(S(=O)(=O)N2CCCC(C(=O)N3CCN(C(c4ccc(F)cc4)c4ccc(F)cc4)CC3)C2)cc1 (stereo not drawn) [6l, (1-((4-Sulfamoylaminophenyl)sulfonyl)piperidin-3-yl)(4-(bis(4-fluorophenyl)methyl)piperazin-1-yl)methanone] | 467 | 326 | 786
11 | NS(=O)(=O)Nc1cccc(S(=O)(=O)N2CCCC(C(=O)N3CCN(C(c4ccc(F)cc4)c4ccc(F)cc4)CC3)C2)c1 (stereo not drawn) [6k, (1-((3-Sulfamoylaminophenyl)sulfonyl)piperidin-3-yl)(4-(bis(4-fluorophenyl)methyl)piperazin-1-yl)methanone] | 1380 | 45.8 | 753
12 | NS(=O)(=O)Nc1ccc(S(=O)(=O)NCCC(=O)N2CCN(C(c3ccc(F)cc3)c3ccc(F)cc3)CC2)cc1 [6f, N-(3-(4-(bis(4-Fluorophenyl)methyl)piperazin-1-yl)-3-oxopropyl)-4-(sulfamoylamino)benzenesulfonamide] | 202 | 63.2 | 406
